Reference: ChEMBL document CHEMBL3259803, “2012 Division of medicinal chemistry award address. Trekking the cannabinoid road: a personal perspective” (J Med Chem, 2014)

Target: Cannabinoid receptor 2 (Homo sapiens) (UniProt P34972)
Assay: Inhibition of [3H]CP-55940 binding to N-terminal FLAG-tagged/C-terminal 6His-tagged recombinant human CB2 receptor overexpressed in baculovirus infected insect Sf21 cells assessed as reduction of receptor Bmax at 10 nM after 1 hr relative to control

Cannabinoid receptor 2 (Homo sapiens), sequence (P34972 whole entry): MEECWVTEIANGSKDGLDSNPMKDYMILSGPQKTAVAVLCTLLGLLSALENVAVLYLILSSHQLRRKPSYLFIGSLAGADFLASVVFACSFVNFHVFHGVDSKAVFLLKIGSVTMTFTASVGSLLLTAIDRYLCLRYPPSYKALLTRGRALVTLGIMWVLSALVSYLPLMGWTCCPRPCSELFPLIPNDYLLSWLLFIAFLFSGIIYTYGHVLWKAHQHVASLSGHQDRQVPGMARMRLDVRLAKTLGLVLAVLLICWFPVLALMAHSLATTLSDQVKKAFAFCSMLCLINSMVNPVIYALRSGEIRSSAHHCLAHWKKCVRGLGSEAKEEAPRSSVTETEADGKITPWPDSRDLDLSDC

**Q.** `CC(C)(CCCCCCN=C=S)c1ccc2c(c1)OC(C)(C)[C@@H]1CC[C@@H](CO)C[C@@H]21` was tested. Which inhibition did it give?
**A.** 75%
